Structures can show the parent of a compound that is named as a salt.
What was measured:
Jurkat cells = experiment: Jurkat cell adhesion system (adhesion to immobilized human fibronectin, PMA-stimulated); type: cell-based; conditions: concentration inhibiting by 50% the PMA-stimulated increase in adhered Jurkat cells on human fibronectin
From the text: The “C1-6 haloalkyl” of Group A1 and Group A2 (mentioned below) is aforementioned “C1-6 alkyl” having 1-6 aforementioned “halogen” bonded thereto, as examples there may be mentioned straight-chain or branched-chain alkyl groups such as methyl, ethyl, n-propyl, isopropyl, n-butyl, isobutyl, s-butyl, t-butyl, pentyl, isopentyl, 2-methylbutyl, neopentyl, 1-ethylpropyl, hexyl, isohexyl, 4-methylpentyl, 3-methylpentyl, 2-methylpentyl, 1-methylpentyl, 3,3-dimethylbutyl, 2,2-dimethylbutyl, 1,1-dimethylbutyl, 1,2-dimethylbutyl, 1,3-dimethylbutyl, 2,3-dimethylbutyl, 1-ethylbutyl or 2-ethylbutyl, having fluorine or chlorine bonded thereto, among which C1-4 alkyl having 1 to 3 fluorine or chlorine bonded thereto is preferred, and trifluoromethyl is particularly preferred.
As examples of the “C2-7 alkylene”, where C2-7 alkylene is permissible only in the case that a spiro union is formed together with the substituted 5- to 10-membered cycloalkyl or the substituted 5- to 10-membered cycloalkenyl, of Group A1 and Group A2 (mentioned below), there may be mentioned straight-chain or branched-chain groups such as 1,2-ethylene, trimethylene, propylene, ethylethylene, tetramethylene, pentamethylene, hexamethylene or heptamethylene, among which 1,2-ethylene, trimethylene, tetramethylene or pentamethylene is preferred, and 1,2-ethylene, tetramethylene or pentamethylene is particularly preferred.
As examples of the “halogen” of Group W1 there may be mentioned the same ones listed above, among which fluorine or chlorine is preferred.
As examples of the “C1-6 alkyl” of Group W1 there may be mentioned the same ones listed above, among which C1-4 groups are preferred, and methyl or ethyl is particularly preferred.
The “C2-7 alkoxyalkyl” of Group W1 is aforementioned “C1-6 alkyl” having the aforementioned “C1-6 alkoxy” bonded thereto, of 2 to 7 carbon (total number of carbon), and as examples there may be mentioned methoxymethyl, methoxyethyl, ethoxyethyl, methoxypropyl or propoxyethyl, among which methoxymethyl is preferred.
As examples of the “C1-6 alkoxy” of the “C1-6 alkoxy optionally substituted with a substituent selected from Group T1” of Group W1 there may be mentioned the same ones listed above, among which C1-4 groups are preferred, and methoxy, ethoxy, isopropoxy or propoxy is particularly preferred.

[1] = system: colon-infiltrating neutrophils (myeloperoxidase enzyme activity); experiment: Oxazolone-induced colon neutrophil infiltration model (colon myeloperoxidase activity); type: in vivo; conditions: myeloperoxidase enzyme activity inhibitory rate vs oxazolone control group; 30 mg/kg orally 30 minutes prior to intrarectal challenge; colon 4 hours after challenge; male Balb/c mice
From the text: The “di(C1-6 alkyl)amino” of Group D1 may be either symmetric or asymmetric, and as examples there may be mentioned straight-chain or branched-chain groups such as dimethylamino, methylethylamino, diethylamino, methylpropylamino, ethylpropylamino, dipropylamino, diisopropylamino, dibutylamino, diisobutylamino, di(s-butyl)amino, di(t-butyl)amino, methylpentylamino, dipentylamino, diisopentylamino, di(2-methylbutyl)amino, di(neopentyl)amino, di(1-ethylpropyl)amino, dihexylamino, methylisohexylamino, diisohexylamino, di(4-methylpentyl)amino, di(3-methylpentyl)amino, di(2-methylpentyl)amino, di(1-methylpentyl)amino, di(3,3-dimethylbutyl)amino, di(2,2-dimethylbutyl)amino, di(1,1-dimethylbutyl)amino, di(1,2-dimethylbutyl)amino, di(1,3-dimethylbutyl)amino, di(2,3-dimethylbutyl)amino, di(1-ethylbutyl)amino or di(2-ethylbutyl)amino, among which dimethylamino, methylethylamino or diethylamino is preferred, and dimethylamino is particularly preferred.
The “C2-7 alkylcarbonylamino” of Group D1 is an amino group having the aforementioned “C2-7 alkylcarbonyl” bonded thereto, and as examples there may be mentioned straight-chain or branched-chain groups such as acetylamino, ethylcarbonylamino, n-propylcarbonylamino, isopropylcarbonylamino, n-butylcarbonylamino, isobutylcarbonylamino, s-butylcarbonylamino, t-butylcarbonylamino, pentylcarbonylamino, isopentylcarbonylamino, 2-methylbutylcarbonylamino, neopentylcarbonylamino, 1-ethylpropylcarbonylamino, hexylcarbonylamino, isohexylcarbonylamino, 4-methylpentylcarbonylamino, 3-methylpentylcarbonylamino, 2-methylpentylcarbonylamino, 1-methylpentylcarbonylamino, 3,3-dimethylbutylcarbonylamino, 2,2-dimethylbutylcarbonylamino, 1,1-dimethylbutylcarbonylamino, 1,2-dimethylbutylcarbonylamino, 1,3-dimethylbutylcarbonylamino, 2,3-dimethylbutylcarbonylamino, 1-ethylbutylcarbonylamino or 2-ethylbutylcarbonylamino, among which amino groups having C2-5 alkylcarbonyl bonded thereto are preferred, and acetylamino or ethylcarbonylamino is particularly preferred.
As examples of the “3- to 8-membered cycloalkyl” of the “3- to 8-membered cycloalkyl optionally substituted with a substituent selected from Group H1” of Group D1 and the “3- to 8-membered cycloalkyl” of Group D2 (mentioned below) there may be mentioned the same ones listed above, among which cyclopropyl, cyclobutyl, cyclopentyl or cyclohexyl is preferred, cyclopropyl or cyclobutyl is more preferred, and cyclopropyl is most preferred.
As exampled of the “C2-7 alkoxycarbonyl” of Group D1 there may be mentioned the same ones listed above, among which methoxycarbonyl or ethoxycarbonyl is preferred. […]

[2] = system: human peripheral blood neutrophils; experiment: Human peripheral blood neutrophil adhesion system (adhesion to HUVEC immobilized plate, PMA-stimulated); type: cell-based; conditions: concentration inhibiting by 50% the PMA-stimulated increase in neutrophils adhered to HUVEC
From the text: As examples of the “C2-7 alkylcarbonyl” of Group W1 there may be mentioned the same ones listed above, among which C2-5 groups are preferred, and acetyl is particularly preferred.
As examples of the “C1-6 alkyl” for R^6X and R^7X there may be mentioned the same ones listed above.
As examples of the “halogen” of Group C1 there may be mentioned the same ones listed above, among which bromine, fluorine or chlorine is preferred.
As examples of the “C1-6 alkyl” of Group C1 there may be mentioned the same ones listed above, among which C1-4 groups are preferred, and methyl is particularly preferred.
As examples of the “C1-6 alkoxy” of Group C1 there may be mentioned the same ones listed above, among which C1-4 groups are preferred, and methoxy or ethoxy is particularly preferred.
As examples of the “halogen” of Group D1 and Group D2 (mentioned below) there may be mentioned the same ones listed above, among which fluorine or chlorine is preferred.
As examples of the “C1-6 alkoxy” of Group D1 and Group D2 (mentioned below) there may be mentioned the same ones listed above, among which C1-4 groups are preferred, and methoxy or ethoxy is particularly preferred.
The “C1-6 alkylthio” of Group D1 is a thio group having the aforementioned “C1-6 alkyl” bonded thereto, and as examples there may be mentioned straight-chain or branched-chain groups such as methylthio, ethylthio, propylthio, isopropylthio, […], isobutylthio, s-butylthio, t-butylthio, pentylthio, isopentylthio, 2-methylbutylthio, neopentylthio, 1-ethylpropylthio, hexylthio, isohexylthio, 4-methylpentylthio, 3-methylpentylthio, 2-methylpentylthio, 1-methylpentylthio, 3,3-dimethylbutylthio, 2,2-dimethylbutylthio, 1,1-dimethylbutylthio, 1,2-dimethylbutylthio, 1,3-dimethylbutylthio, 2,3-dimethylbutylthio, 1-ethylbutylthio or 2-ethylbutylthio, among which C1-4 groups are preferred, and methylthio or ethylthio is particularly preferred.
As examples of the “C1-6 alkylsulfonyl” of Group D1 there may be mentioned the same ones listed above, among which C1-4 groups are preferred, and methylsulfonyl or ethylsulfonyl is particularly preferred.
The “C1-6 alkylsulfinyl” of Group D1 is a sulfinyl group having the aforementioned “C1-6 alkyl” bonded thereto, as examples there may be mentioned straight-chain or branched-chain groups such as methylsulfinyl, ethylsulfinyl, propylsulfinyl, isopropylsulfinyl, […], isobutylsulfinyl, s-butylsulfinyl, t-butylsulfinyl, pentylsulfinyl, isopentylsulfinyl, 2-methylbutylsulfinyl, neopentylsulfinyl, 1-ethylpropylsulfinyl, hexylsulfinyl, isohexylsulfinyl, 4-methylpentylsulfinyl, 3-methylpentylsulfinyl, 2-methylpentylsulfinyl, 1-methylpentylsulfinyl, 3,3-dimethylbutylsulfinyl, 2,2-dimethylbutylsulfinyl, 1,1-dimethylbutylsulfinyl, 1,2-dimethylbutylsulfinyl, 1,3-dimethylbutylsulfinyl, 2,3-dimethylbutylsulfinyl, 1-ethylbutylsulfinyl or 2-ethylbutylsulfinyl, among which C1-4 groups are preferred, and methylsulfinyl or ethylsulfinyl is particularly preferred.

SMILES | IC50 (Jurkat cells) [µM] | Ihibitory Rate (%) [1] [%] | IC50 [2] [µM]
CCCCN1CCN(c2c(NC3CCOCC3)cccc2C2=CCC(C(C)(C)C)CC2)CC1.Cl (racemic) [Example 5, [3-(4-t-Butylcyclohex-1-enyl)-2-(4-butylpiperazin-1-yl)phenyl](tetrahydropyran-4-yl)amine hydrochloride] | 2.9 | 3.0 | 11
CCCCN1CCN(c2cc3c(cc2C2CCC(C(C)(C)C)CC2)N(C)C(=O)CO3)CC1 (centres unmarked) [Example 6, 6-(4-t-Butylcyclohexyl)-7-(4-butylpiperazin-1-yl)-4-methyl-4H-benzo[1,4]oxazin-3-one] | 2.9 | 48.0 | 11.7
CCCCN1CCN(c2cc3c(cc2C2CCC(C(C)(C)C)CC2)N(C)CCO3)CC1.Cl (centres unmarked) [Example 7, 6-(4-t-Butylcyclohexyl)-7-(4-butylpiperazin-1-yl)-4-methyl-3,4-dihydro-2H-benzo[1,4]oxazine hydrochloride] | 4.9 | 24.0 | 17.4
CCCCN1CCN(c2cc3c(cc2C2CC(C)(C)CC(C)(C)C2)OCCO3)CC1 [Example 15, 1-Butyl-4-[7-(3,3,55-tetramethylcyclohexyl)-2,3-dihydrobenzo[1,4]dioxin-6-yl]piperazine hydrochloride] | 4.7 |  | 11.8
CCCCN1CCN(c2ccc(N3CCC4(CC3)OCCO4)cc2C2CCC(C(C)(C)C)CC2)CC1.Cl (centres unmarked) [Example 134, 8-{3-(4-t-Butylcyclohexyl)-4-(4-butylpiperazin-1-ylphenyl}-1,4-dioxa-8-aza-spiro [4.5]decane hydrochloride] | 4 |  | 6
CCCCN1CCN(c2ccc(N3CCC4(CC3)OCCO4)cc2C2CCC(C(C)(C)C)CC2)CC1.Cl (centres unmarked) [Example 134] |  | 18.0 | 
